In brackets after ≈: the same amount, converted by molar mass.
Key:
Mus musculus [1] = assay: Compound was tested […] for immunosuppressive activity in the serum free mixed lymphocyte reaction; type: functional
Mus musculus [2] = assay: In vivo immunosuppressive activity in the delayed type hypersensitivity model induced by SRBC-TH cells in mouse after peroral administration; type: functional; details: po

Row | Structure (SMILES) | IC50 (Mus musculus [1]) | ED50 (Mus musculus [2])
1 | C=C(C/C=C/C(C)(C)O)[C@H]1CC[C@]2(C)[C@@H]1CC[C@@H]1[C@@]3(C)CC[C@H](O)C(C)(C)[C@@H]3CC[C@]12C | 0.8 µg/mL (≈ 1.81 µM) | 10 mg/kg
2 | C=C(C/C=C/C(C)(C)O)[C@@H]1CC[C@]2(C)[C@@H]1CC[C@@H]1[C@@]3(C)CC[C@H](O)C(C)(C)[C@@H]3CC[C@]12C | 0.01 µg/mL (≈ 0.0226 µM) | 0.04 mg/kg

Reference: ChEMBL document CHEMBL1131729, “Isolation and synthesis of a novel immunosuppressive 17alpha-substituted dammarane from the flour of the Palmyrah palm (Borassus flabellifer)” (Bioorg Med Chem Lett, 1999)
